Measured values taken from PubChem BioAssay AID1963845 (Molecular Pharmacology Branch, DTP, NCI, 2024).

Test system: 429239-143-T-J1-PDC complex spheroid viability
Experiment: Anticancer human tumor 429239-143-T-J1-PDC patient-derived small cell lung carcinoma cell line growth inhibition [POLQ]
Settings: for IC50: curve of first compound; for viability, T/C: stronger effect = lower value
Method in brief: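 Complex spheroid viability model combining PDC tumour cells with endothelial (HUVEC) and MSC stromal cells. Novobiocin, ART-558 or RP6685 were tested singly and in combination with standard and investigational anticancer drugs. Each was titrated in half-log steps from near clinical Cmax, or from 10 microM where Cmax was unknown.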

[1] = second compound 0.0316 µM, first compound 0.00316 µM
[2] = second compound 0.0316 µM, first compound 0.01 µM
[3] = second compound 0.0316 µM, first compound 0.0316 µM
[4] = second compound 0.0316 µM, first compound 0.1 µM
[5] = second compound 0.1 µM, first compound 0.00316 µM
[6] = second compound 0.1 µM, first compound 0.01 µM
[7] = second compound 0.1 µM, first compound 0.0316 µM
[8] = second compound 0.1 µM, first compound 0.1 µM
[9] = second compound 0.316 µM, first compound 0.00316 µM
[10] = second compound 0.316 µM, first compound 0.01 µM
[11] = second compound 0.316 µM, first compound 0.0316 µM
[12] = second compound 0.316 µM, first compound 0.1 µM
[13] = second compound 1 µM, first compound 0.00316 µM
[14] = second compound 1 µM, first compound 0.01 µM
[15] = second compound 1 µM, first compound 0.0316 µM
[16] = second compound 1 µM, first compound 0.1 µM
[17] = second compound 3.16 µM, first compound 0.00316 µM
[18] = second compound 3.16 µM, first compound 0.01 µM
[19] = second compound 3.16 µM, first compound 0.0316 µM
[20] = second compound 3.16 µM, first compound 0.1 µM
[21] = second compound 10 µM, first compound 0.00316 µM
[22] = second compound 10 µM, first compound 0.01 µM
[23] = second compound 10 µM, first compound 0.0316 µM
[24] = second compound 10 µM, first compound 0.1 µM
[25] = second compound 0.0316 µM, first compound 0.316 µM
[26] = second compound 0.0316 µM, first compound 1 µM
[27] = second compound 0.1 µM, first compound 0.316 µM
[28] = second compound 0.1 µM, first compound 1 µM
[29] = second compound 0.316 µM, first compound 0.316 µM
[30] = second compound 0.316 µM, first compound 1 µM
[31] = second compound 1 µM, first compound 0.316 µM
[32] = second compound 1 µM, first compound 1 µM
[33] = second compound 3.16 µM, first compound 0.316 µM
[34] = second compound 3.16 µM, first compound 1 µM
[35] = second compound 10 µM, first compound 0.316 µM
[36] = second compound 10 µM, first compound 1 µM
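Further: luminescence signal used as surrogate measure of viable cells; spheroids exposed to compounds for seven days before readout.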
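Wherever viability, T/C is given: 100% = DMSO vehicle control viability as luminescence relative to vehicle.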

Structure (SMILES): CC[C@@]1(O)C(=O)OCc2c1cc1n(c2=O)Cc2cc3c(CN(C)C)c(O)ccc3nc2-1 + COC1C(OC(N)=O)C(O)C(Oc2ccc3c(O)c(NC(=O)c4ccc(O)c(CC=C(C)C)c4)c(=O)oc3c2C)OC1(C)C
- IC50 (second compound 0.0316 µM): 13.5 nM
- IC50 (second compound 0.1 µM): 16 nM
- IC50 (second compound 0.316 µM): 15 nM
- IC50 (second compound 1 µM): 16.6 nM
- IC50 (second compound 3.16 µM): 13.6 nM
- IC50 (second compound 10 µM): 16.2 nM
- viability, T/C (second compound 0.0316 µM, first compound 0.000316 µM): 102%
- viability, T/C (second compound 0.0316 µM, first compound 0.001 µM): 101%
- viability, T/C [1]: 86.5%
- viability, T/C [2]: 63%
- viability, T/C [3]: 18.6%
- viability, T/C [4]: 19.8%
- viability, T/C (second compound 0.1 µM, first compound 0.000316 µM): 110%
- viability, T/C (second compound 0.1 µM, first compound 0.001 µM): 108%
- viability, T/C [5]: 88.7%
- viability, T/C [6]: 72.9%
- viability, T/C [7]: 16.8%
- viability, T/C [8]: 19%
- viability, T/C (second compound 0.316 µM, first compound 0.000316 µM): 98.4%
- viability, T/C (second compound 0.316 µM, first compound 0.001 µM): 97.4%
- viability, T/C [9]: 101%
- viability, T/C [10]: 66.3%
- viability, T/C [11]: 20.4%
- viability, T/C [12]: 19.7%
- viability, T/C (second compound 1 µM, first compound 0.000316 µM): 93.6%
- viability, T/C (second compound 1 µM, first compound 0.001 µM): 98%
- viability, T/C [13]: 83.7%
- viability, T/C [14]: 73.8%
- viability, T/C [15]: 17.7%
- viability, T/C [16]: 21.4%
- viability, T/C (second compound 3.16 µM, first compound 0.000316 µM): 108%
- viability, T/C (second compound 3.16 µM, first compound 0.001 µM): 93.4%
- viability, T/C [17]: 99.7%
- viability, T/C [18]: 61.4%
- viability, T/C [19]: 18.5%
- viability, T/C [20]: 18.4%
- viability, T/C (second compound 10 µM, first compound 0.000316 µM): 87.8%
- viability, T/C (second compound 10 µM, first compound 0.001 µM): 103%
- viability, T/C [21]: 91.1%
- viability, T/C [22]: 71.1%
- viability, T/C [23]: 20.8%
- viability, T/C [24]: 17.4%

Structure (SMILES): CCc1c2c(nc3ccc(O)cc13)-c1cc3c(c(=O)n1C2)COC(=O)[C@]3(O)CC + Nc1ccc(C#CCN(C(=O)Cc2ncc(C(F)(F)F)cc2C(F)(F)F)c2ccc(F)cc2)nn1
- IC50 (second compound 0.0316 µM): < 3.16 nM
- IC50 (second compound 0.1 µM): < 3.16 nM
- IC50 (second compound 0.316 µM): < 3.16 nM
- IC50 (second compound 1 µM): < 3.16 nM
- IC50 (second compound 3.16 µM): < 3.16 nM
- IC50 (second compound 10 µM): < 3.16 nM
- viability, T/C [1]: 12%
- viability, T/C [2]: 8.29%
- viability, T/C [3]: 7.72%
- viability, T/C [4]: 6.64%
- viability, T/C [25]: 4.44%
- viability, T/C [26]: 1.99%
- viability, T/C [5]: 10.2%
- viability, T/C [6]: 7.32%
- viability, T/C [7]: 7.97%
- viability, T/C [8]: 6.96%
- viability, T/C [27]: 4.07%
- viability, T/C [28]: 3.28%
- viability, T/C [9]: 8.87%
- viability, T/C [10]: 7.47%
- viability, T/C [11]: 6.42%
- viability, T/C [12]: 7.02%
- viability, T/C [29]: 6%
- viability, T/C [30]: 3.04%
- viability, T/C [13]: 8.25%
- viability, T/C [14]: 8.49%
- viability, T/C [15]: 7.35%
- viability, T/C [16]: 7.22%
- viability, T/C [31]: 4.56%
- viability, T/C [32]: 1.52%
- viability, T/C [17]: 8.61%
- viability, T/C [18]: 7.3%
- viability, T/C [19]: 8.79%
- viability, T/C [20]: 8.33%
- viability, T/C [33]: 4.53%
- viability, T/C [34]: 2.41%
- viability, T/C [21]: 6.48%
- viability, T/C [22]: 7.39%
- viability, T/C [23]: 8.55%
- viability, T/C [24]: 6.94%
- viability, T/C [35]: 4.47%
- viability, T/C [36]: 1.68%

Structure (SMILES): C=CC(=O)N1CCN(c2nc(=O)n(-c3c(C)ccnc3C(C)C)c3nc(-c4c(O)cccc4F)c(F)cc23)C(C)C1 (stereo unspecified) + Nc1ccc(C#CCN(C(=O)Cc2ncc(C(F)(F)F)cc2C(F)(F)F)c2ccc(F)cc2)nn1
- IC50 (second compound 0.0316 µM): > 10000 nM
- IC50 (second compound 0.1 µM): > 10000 nM
- IC50 (second compound 0.316 µM): > 10000 nM
- IC50 (second compound 1 µM): > 10000 nM
- IC50 (second compound 3.16 µM): > 10000 nM
- IC50 (second compound 10 µM): > 10000 nM
- viability, T/C [3]: 101%
- viability, T/C [4]: 97.2%
- viability, T/C [25]: 97.2%
- viability, T/C [26]: 114%
- viability, T/C (second compound 0.0316 µM, first compound 3.16 µM): 108%
- viability, T/C (second compound 0.0316 µM, first compound 10 µM): 93.8%
- viability, T/C [7]: 97.7%
- viability, T/C [8]: 113%
- viability, T/C [27]: 108%
- viability, T/C [28]: 114%
- viability, T/C (second compound 0.1 µM, first compound 3.16 µM): 102%
- viability, T/C (second compound 0.1 µM, first compound 10 µM): 96.8%
- viability, T/C [11]: 108%
- viability, T/C [12]: 97.6%
- viability, T/C [29]: 99.6%
- viability, T/C [30]: 103%
- viability, T/C (second compound 0.316 µM, first compound 3.16 µM): 109%
- viability, T/C (second compound 0.316 µM, first compound 10 µM): 94.1%
- viability, T/C [15]: 98.9%
- viability, T/C [16]: 103%
- viability, T/C [31]: 99.3%
- viability, T/C [32]: 112%
- viability, T/C (second compound 1 µM, first compound 3.16 µM): 98.4%
- viability, T/C (second compound 1 µM, first compound 10 µM): 91.8%
- viability, T/C [19]: 107%
- viability, T/C [20]: 105%
- viability, T/C [33]: 109%
- viability, T/C [34]: 115%
- viability, T/C (second compound 3.16 µM, first compound 3.16 µM): 104%
- viability, T/C (second compound 3.16 µM, first compound 10 µM): 97.3%
- viability, T/C [23]: 104%
- viability, T/C [24]: 98.8%
- viability, T/C [35]: 111%
- viability, T/C [36]: 108%
- viability, T/C (second compound 10 µM, first compound 3.16 µM): 95.7%
- viability, T/C (second compound 10 µM, first compound 10 µM): 96.8%
